17 molecules from patent publication US20230406840A1, “N-(2-(3-CYANO-2-AZABICYCLO[3.1.0]HEXAN-2-YL)-2-OXOETHYL)QUINOLINE-4-CARBOXAMIDES” (AstraZeneca AB, priority 2022, published 2023) can be followed below.

A short description of data set [1]: Kinetic solubility. The class given is physicochemical. As to the method: Kinetic solubility was measured as described in Comput Aided Mol Des 2015, 29, 795.
The subject of data set [2] is Rat Hepatocytes (rHep). Kind of data set: Metabolic stability in rat hepatocytes (rHep). The class given is in vitro ADME. As to the method: Metabolic stability in rat hepatocytes was measured as described in J Comput Aided Mol Des 2015, 29, 795.
Data set [3] deals with Human Hepatocytes (hHep). Briefly: Metabolic stability in human hepatocytes (hHep). The class given is in vitro ADME. As to the method:
Metabolic stability in human hepatocytes was measured as described in Xenobiotica 2010, 40, 637.

The target in data set [4] is Prolyl Oligopeptidase (hPREP) (Homo sapiens (Human), UniProt P48147). Briefly: hPREP inhibition assay. Conditions: hPREP 0.6 nM, Z-Gly-Pro-amino-methylcoumarin 50 μM; read-out: PREP IC50. The data set is classed as biochemical. As to the method: Compounds were tested in a biochemical inhibition assay using Prolyl endopeptidase, Prolyl Oligopeptidase (hPREP) enzyme at 0.6 nM FAC (R&D Systems, 4308-SE) and the substrate Z-Gly-Pro-amino-methylcoumarin (Bachem, I-1145) at 50 μM FAC. 384 Low volume black plates (Greiner #784076) were used. […] 4 μL, 100 μM substrate solution (25 mM Tris HCl, 250 mM NaCl, 0.01% Triton X-100, 5 mM Glutathione, pH 7.5) was added to each well. Plates were centrifuged at 1000 rpm and incubated for 20 min at rt in dark. […] Data were analyzed in Genedata Screener®.

A short description of data set [5]: Metabolic stability in human liver microsomes (HLM). The data set is classed as in vitro ADME. As to the method: Metabolic stability in HLM was measured as described in J Comput Aided Mol Des 2015, 29, 795.
Background: Microsomes from liver hold many membrane-bound enzymes, among them those of drug oxidation.

In data set [6] the target is hFAP (Homo sapiens (Human), UniProt Q12884).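 Note: fluorescence read after incubating enzyme with substrate at room temperature, IC50 fitted from percent inhibition against log concentration with a one-site model.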
Description: Compounds were tested in a biochemical inhibition assay using hFAP enzyme at 0.24 nM FAC (Proteros, 38-760 (PR-0071)) and the substrate Ala-Pro-AMC (ARI-3144) at 20 μM FAC. 384 low volume black plates (Greiner #784076) were used. 4 μL, 0.48 nM enzyme solution (100 mM Tris HCl, 100 mM NaCl, 0.05% Chaps, pH 7.4) was added to 40 nL compounds (in DMSO) at 10 CR, 3-fold dilution series from 50 μM FAC. Plates were incubated for 15 min at rt in dark. 4 μL, 40 μM substrate solution (100 mM Tris HCl, 100 mM NaCl, 0.05% Chaps, pH 7.4) was added to each well. Plates were centrifuged at 1000 rpm and incubated for 30 min at rt in dark. The plates were read on a PHERAstar® reader with excitation 340 nm and emission 460 nm. Data were analyzed in Genedata Screener®. IC50 values were determined by plotting % inhibition versus log compound concentration and using a one site dose response model.
Data set [7] deals with human Fibroblast activation protein alpha (hFAP) (Homo sapiens (Human), UniProt Q12884). Briefly: hFAP inhibition assay (tight binders). The data set is classed as biochemical. Conditions: tight-binder format, Ala-Pro-AMC 20 μM, 2.5 h incubation; n = 1 or geometric mean (n = 5-10). As to the method:
Data were analyzed in Genedata Screener®.

≈ marks a conversion by molar mass, not a printed value. Like-named read-outs stand apart in the source and are kept apart here. Bounds are passed on as bounds.

Sequence of human Fibroblast activation protein alpha (hFAP) (Q12884 38-760): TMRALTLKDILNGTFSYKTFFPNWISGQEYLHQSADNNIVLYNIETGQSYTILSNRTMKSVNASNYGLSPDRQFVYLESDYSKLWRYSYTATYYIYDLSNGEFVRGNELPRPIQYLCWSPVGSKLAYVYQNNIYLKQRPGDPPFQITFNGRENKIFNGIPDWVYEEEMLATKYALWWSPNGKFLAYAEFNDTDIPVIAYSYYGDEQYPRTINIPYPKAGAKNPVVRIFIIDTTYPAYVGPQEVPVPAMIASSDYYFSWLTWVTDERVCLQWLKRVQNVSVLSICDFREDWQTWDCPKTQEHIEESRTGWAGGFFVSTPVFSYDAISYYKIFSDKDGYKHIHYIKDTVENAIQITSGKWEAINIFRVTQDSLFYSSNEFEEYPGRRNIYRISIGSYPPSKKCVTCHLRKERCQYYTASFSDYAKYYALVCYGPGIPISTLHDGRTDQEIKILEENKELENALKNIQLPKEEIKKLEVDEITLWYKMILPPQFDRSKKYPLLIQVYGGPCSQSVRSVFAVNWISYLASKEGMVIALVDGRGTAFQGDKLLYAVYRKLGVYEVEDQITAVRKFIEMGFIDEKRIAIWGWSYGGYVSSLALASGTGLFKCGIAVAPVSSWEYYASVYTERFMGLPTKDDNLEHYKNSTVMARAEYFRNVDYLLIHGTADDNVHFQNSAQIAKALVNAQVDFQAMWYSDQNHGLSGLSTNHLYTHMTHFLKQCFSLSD
Sequence of hFAP (Q12884 38-760): as above
Sequence of Prolyl Oligopeptidase (hPREP) (P48147 whole entry): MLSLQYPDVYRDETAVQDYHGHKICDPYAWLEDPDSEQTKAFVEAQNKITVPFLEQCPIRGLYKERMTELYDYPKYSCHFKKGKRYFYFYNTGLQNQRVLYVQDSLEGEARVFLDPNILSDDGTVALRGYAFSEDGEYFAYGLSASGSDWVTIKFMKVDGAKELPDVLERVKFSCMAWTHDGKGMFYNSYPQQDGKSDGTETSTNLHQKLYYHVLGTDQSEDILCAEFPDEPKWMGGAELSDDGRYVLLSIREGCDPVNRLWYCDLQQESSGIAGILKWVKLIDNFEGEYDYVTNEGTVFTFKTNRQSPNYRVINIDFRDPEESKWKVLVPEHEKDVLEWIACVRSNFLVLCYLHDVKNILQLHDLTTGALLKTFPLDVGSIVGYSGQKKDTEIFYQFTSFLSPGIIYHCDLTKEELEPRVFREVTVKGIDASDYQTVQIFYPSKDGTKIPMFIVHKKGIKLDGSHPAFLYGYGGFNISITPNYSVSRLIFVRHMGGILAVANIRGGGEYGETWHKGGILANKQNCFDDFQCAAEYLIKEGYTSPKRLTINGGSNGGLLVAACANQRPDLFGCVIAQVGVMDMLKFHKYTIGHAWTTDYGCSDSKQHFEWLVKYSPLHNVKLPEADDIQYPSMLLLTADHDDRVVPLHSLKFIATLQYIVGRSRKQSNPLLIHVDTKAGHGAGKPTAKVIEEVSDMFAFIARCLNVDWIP

By solubility is commonly meant the dissolved amount per volume that the medium holds. The term IC50 denotes the midpoint of a concentration-inhibition curve. As a reminder, the microsomal CLint is the capacity of the preparation to metabolise the compound, expressed as a volume cleared per time. A high value points to faster metabolism. `Cc1cc(C(=O)NCC(=O)N2[C@H](C#N)C[C@@H]3C[C@@H]32)c2cc(F)ccc2n1` [Example 4, N-(2-((1S,3S,5S)-3-Cyano-2-azabicyclo[3.1.0]hexan-2-yl)-2-oxoethyl)-6-fluoro-2-methylquinoline-4-carboxamide]: in data set [1] (kinetic from dmso stock), the solubility was greater than 1000 µM. The “rHeps CLint” value in data set [2] turned out to be 1.2 μL/min/1E6. Moreover, the “hHep CLint” value in data set [3] is on record as less than 1 μL/min/1E6. Also, the half-maximal inhibitory concentration (IC50) in data set [4] was 22000 nM; in data set [6] it was 64 nM; in data set [7], 32 nM. Moreover, in data set [5], the microsomal CLint is less than 3 µL/min/mg.

In data set [1] (kinetic from dmso stock), `Cc1cc(C(=O)NCC(=O)N2[C@H](C#N)C[C@@H]3C[C@@H]32)c2cc(Cl)ccc2n1` [Example 5, 6-Chloro-N-(2-((1S,3S,5S)-3-cyano-2-azabicyclo[3.1.0]hexan-2-yl)-2-oxoethyl)-2-methylquinoline-4-carboxamide] had a solubility of 140 µM (≈ 51.6 µg/mL). Besides, in data set [2], the “rHeps CLint” value turned out to be 2.8 μL/min/1E6. Further, the IC50 in data set [4] amounted to 18000 nM; in data set [6], 65 nM; in data set [7], 18 nM. In data set [5], this molecule displayed a microsomal CLint of 11 µL/min/mg.

`Cc1cc(C(=O)NCC(=O)N2[C@H](C#N)C[C@@H]3C[C@@H]32)c2cc(Br)ccc2n1` [Example 6, 6-Bromo-N-(2-((1S,3S,5S)-3-cyano-2-azabicyclo[3.1.0]hexan-2-yl)-2-oxoethyl)-2-methylquinoline-4-carboxamide]: the solubility in data set [1] (kinetic from dmso stock) came to 61 µM (≈ 25.2 µg/mL). Further, in data set [2], the “rHeps CLint” value was found to be 5.8 μL/min/1E6. For the same molecule, the values for the IC50 in data set [4], in data set [6] and in data set [7] were 13000 nM, 58 nM and 18 nM, respectively. In data set [5], this molecule came in with a microsomal CLint of 23 µL/min/mg.

As for `Cc1cc(C(=O)NCC(=O)N2[C@H](C#N)C[C@@H]3C[C@@H]32)c2cc(I)ccc2n1` [Example 7, N-(2-((1S,3S,5S)-3-Cyano-2-azabicyclo[3.1.0]hexan-2-yl)-2-oxoethyl)-6-iodo-2-methylquinoline-4-carboxamide], the solubility in data set [1] (kinetic from dmso stock) amounted to 23 µM (≈ 10.6 µg/mL). The “rHeps CLint” value in data set [2] is 12 μL/min/1E6. For the same molecule, the IC50 was found to be 18000 nM in data set [4], 53 nM in data set [6] and 15 nM in data set [7]. The microsomal CLint in data set [5] is 43 µL/min/mg.

`CC(O)c1ccc2nccc(C(=O)NCC(=O)N3[C@H](C#N)C[C@@H]4C[C@@H]43)c2c1` (stereo partly drawn) [Example 14, N-(2-((1S,3S,5S)-3-Cyano-2-azabicyclo[3.1.0]hexan-2-yl)-2-oxoethyl)-6-(1-hydroxyethyl)quinoline-4-carboxamide] came in with a solubility in data set [1] (kinetic from dmso stock) greater than 1000 µM. Also, the “rHeps CLint” value in data set [2] is given as less than 1 μL/min/1E6. In addition, the half-maximal inhibitory concentration (IC50) in data set [4] is greater than 50000 nM; in data set [6], 2.6 nM; in data set [7] it was 0.91 nM. The molecule also came in with a microsomal CLint in data set [5] of less than 3 µL/min/mg.

As for `CCc1ccc2nc(C)cc(C(=O)NCC(=O)N3[C@H](C#N)C[C@@H]4C[C@@H]43)c2c1` [Example 18, N-(2-((1S,3S,5S)-3-Cyano-2-azabicyclo[3.1.0]hexan-2-yl)-2-oxoethyl)-6-ethyl-2-methylquinoline-4-carboxamide], the concentration in solution in data set [1] (kinetic from dmso stock) (solubility) came to 800 µM (≈ 290 µg/mL). For the same molecule, the “rHeps CLint” value in data set [2] is 18 μL/min/1E6. In addition, the IC50 in data set [4] was greater than 50000 nM; in data set [6], 80 nM; in data set [7], 25 nM. The same molecule displayed a microsomal CLint in data set [5] of 120 µL/min/mg.

For `Cc1ccc2nc(C)cc(C(=O)NCC(=O)N3[C@H](C#N)C[C@@H]4C[C@@H]43)c2c1` [Example 19, N-(2-((1S,3S,5S)-3-Cyano-2-azabicyclo[3.1.0]hexan-2-yl)-2-oxoethyl)-2,6-dimethylquinoline-4-carboxamide], in data set [1] (kinetic from dmso stock), the solubility is greater than 1000 µM. Besides, in data set [2], the “rHeps CLint” value is less than 1 μL/min/1E6. The IC50 in data set [4] came to 43000 nM; in data set [6] it was 80 nM; in data set [7], 33 nM. Also, in data set [5], the microsomal CLint was 12 µL/min/mg.

As to `CC(O)c1ccc2c(C(=O)NCC(=O)N3[C@H](C#N)C[C@@H]4C[C@@H]43)ccnc2c1` (stereo partly drawn) [Example 25, N-(2-((1S,3S,5S)-3-Cyano-2-azabicyclo[3.1.0]hexan-2-yl)-2-oxoethyl)-7-(1-hydroxyethyl)quinoline-4-carboxamide], in data set [1] (kinetic from dmso stock), the concentration in solution (solubility) was 960 µM (≈ 350 µg/mL). For the same molecule, the “rHeps CLint” value in data set [2] is listed as less than 1 μL/min/1E6. Moreover, the IC50 was greater than 50000 nM in data set [4], less than 1.8 nM in data set [6] and 0.37 nM in data set [7]. In addition, the microsomal CLint in data set [5] was less than 3 µL/min/mg.

In data set [1] (kinetic from dmso stock), `CC(C)(O)c1ccc2c(C(=O)NCC(=O)N3[C@H](C#N)C[C@@H]4C[C@@H]43)ccnc2c1` [Example 26, N-(2-((1S,3S,5S)-3-Cyano-2-azabicyclo[3.1.0]hexan-2-yl)-2-oxoethyl)-7-(2-hydroxypropan-2-yl)quinoline-4-carboxamide] returned a solubility greater than 1000 µM. Besides, the “rHeps CLint” value in data set [2] is less than 1 μL/min/1E6. The values for the IC50 in data set [4], in data set [6] and in data set [7] were greater than 50000 nM, 2.1 nM and 0.7 nM, respectively. In addition, the microsomal CLint in data set [5] was less than 3 µL/min/mg.

In turn, `CC(OC(F)(F)F)c1ccc2c(C(=O)NCC(=O)N3[C@H](C#N)C[C@@H]4C[C@@H]43)ccnc2c1` (stereo partly drawn) [Example 30, N-(2-((1S,3S,5S)-3-Cyano-2-azabicyclo[3.1.0]hexan-2-yl)-2-oxoethyl)-7-(1-(trifluoromethoxy)ethyl)quinoline-4-carboxamide] yielded a solubility in data set [1] (kinetic from dmso stock) of 200 µM (≈ 86.5 µg/mL). For the same molecule, in data set [2], the “rHeps CLint” value is reported as 16 μL/min/1E6. For the same molecule, the IC50 in data set [4] was greater than 50000 nM; in data set [6], 3.1 nM; in data set [7], 0.41 nM. Also, in data set [5], the microsomal CLint came out at 42 µL/min/mg.

`CC1(c2ccc3c(C(=O)NCC(=O)N4[C@H](C#N)C[C@@H]5C[C@@H]54)ccnc3c2)CC1` [Example 32, N-(2-((1S,3S,5S)-3-Cyano-2-azabicyclo[3.1.0]hexan-2-yl)-2-oxoethyl)-7-(1-methylcyclopropyl)quinoline-4-carboxamide] had a solubility in data set [1] (kinetic from dmso stock) of 37 µM (≈ 13.9 µg/mL). Moreover, in data set [2], the “rHeps CLint” value is 72 μL/min/1E6. Besides, the half-maximal inhibitory concentration (IC50) in data set [4] was greater than 50000 nM; in data set [6], 2 nM. The microsomal CLint in data set [5] amounted to 46 µL/min/mg.

`N#C[C@@H]1C[C@@H]2C[C@@H]2N1C(=O)CNC(=O)c1ccnc2ccc(OCC(F)(F)F)cc12` [Example 33, N-(2-((1S,3S,5S)-3-Cyano-2-azabicyclo[3.1.0]hexan-2-yl)-2-oxoethyl)-6-(2,2,2-trifluoroethoxy)quinoline-4-carboxamide] showed a solubility in data set [1] (kinetic from dmso stock) of 700 µM (≈ 293 µg/mL). Besides, the “rHeps CLint” value in data set [2] is 9.8 μL/min/1E6. The “hHep CLint” value in data set [3] is 25 μL/min/1E6. Also, in data set [5], the microsomal CLint amounted to 170 µL/min/mg. In data set [6], this molecule had an IC50 of 1.4 nM.

In the case of `N#C[C@@H]1C[C@@H]2C[C@@H]2N1C(=O)CNC(=O)c1ccnc2ccc(OC3CCC(F)(F)CC3)cc12` [Example 38, N-(2-((1S,3S,5S)-3-Cyano-2-azabicyclo[3.1.0]hexan-2-yl)-2-oxoethyl)-6-((4,4-difluorocyclohexyl)oxy)quinoline-4-carboxamide], the solubility in data set [1] (kinetic from dmso stock) came to 430 µM (≈ 195 µg/mL). For the same molecule, the “rHeps CLint” value in data set [2] came to 55 μL/min/1E6. The values for the IC50 in data set [4] and in data set [6] were greater than 50000 nM and 1.3 nM, respectively. For the same molecule, in data set [5], the microsomal CLint turned out to be 190 µL/min/mg.

The molecule `CCOC1(c2ccc3c(C(=O)NCC(=O)N4[C@H](C#N)C[C@@H]5C[C@@H]54)ccnc3c2)CC1` [Example 39, N-(2-((1S,3S,5S)-3-Cyano-2-azabicyclo[3.1.0]hexan-2-yl)-2-oxoethyl)-7-(1-ethoxycyclopropyl)quinoline-4-carboxamide] yielded a solubility in data set [1] (kinetic from dmso stock) of 960 µM (≈ 388 µg/mL). In addition, the “rHeps CLint” value in data set [2] is listed as 13 μL/min/1E6. Further, the figures for the IC50 in data set [4], in data set [6] and in data set [7] were greater than 50000 nM, 1.5 nM and 0.41 nM, respectively. The same molecule displayed a microsomal CLint in data set [5] of 77 µL/min/mg.

Regarding `N#C[C@@H]1C[C@@H]2C[C@@H]2N1C(=O)CNC(=O)c1ccnc2ccc(C3CC3)cc12` [Example 42, N-(2-((1S,3S,5S)-3-Cyano-2-azabicyclo[3.1.0]hexan-2-yl)-2-oxoethyl)-6-cyclopropylquinoline-4-carboxamide], in data set [6], inhibition was half-maximal at 5.6 nM (IC50).

Molecule `N#C[C@@H]1C[C@@H]2C[C@@H]2N1C(=O)CNC(=O)c1ccnc2cc(C3CC3)ccc12` [Example 47, N-(2-((1S,3S,5S)-3-Cyano-2-azabicyclo[3.1.0]hexan-2-yl)-2-oxoethyl)-7-cyclopropylquinoline-4-carboxamide] yielded a solubility in data set [1] of 590 µM (≈ 213 µg/mL).

Consider `N#C[C@@H]1CSCN1C(=O)CNC(=O)c1ccnc2ccccc12` [Reference Compound C, (R)-N-(2-(4-cyanothiazolidin-3-yl)-2-oxoethyl)-quinoline-4-carboxamide, reference compound], for which the IC50 in data set [4] turned out to be 7.1 nM.
